Where two headings read alike, the source gives them in different places.
What was measured:
[1] = tested on: Phytophthora infestans; assay: whole plant or invertebrate; assay type: in vivo; conditions: in Solanum lycopersicum, foliar, read-out: control of Phytophthora infestans
[2] = tested on: Phakopsora pachyrhizi; assay: Phakopsora pachyrhizi/Soybean/Preventative (Soybean Rust); assay type: in vivo; conditions: 288 h
[3] = tested on: Mycosphaerella graminicola (Septoria tritici); assay: Mycosphaerella graminicola (Septoria tritici)/Liquid Culture (Septoria Blotch); assay type: cell-based; conditions: Zymoseptoria tritici; for inhibition of growth at 20 ppm: liquid culture, compared to untreated control
Description: Conidia of the fungus from cryogenic storage are directly mixed into nutrient broth (PDB potato dextrose broth). After placing a (DMSO) solution of test compound into a microtiter plate (96-well format), the nutrient broth containing the fungal spores is added. […] The data are presented as the percentage of disease control of each compound for the biological tests against G. lagenarium (Example B3), P. recondita preventative (Example B13), P. teres (Example B15) and M. graminicola (Example B19) as described above. The testing rates of each biological test is specifically described in table C1 below.

[4] = tested on: Blumeria graminis f. sp. tritici (Erysiphe graminis f. sp. tritici); assay: Blumeria graminis f. sp. tritici/Wheat/Leaf Disc Preventative (Powdery Mildew on Wheat); assay type: in vivo; conditions: foliar, wheat leaf disc preventative, compared to untreated control
Description: Wheat leaf segments cv. Kanzler are placed on agar in a multiwell plate (24-well format) and sprayed with the formulated test compound diluted in water. The leaf disks are inoculated by shaking powdery mildew infected plants above the test plates 1 day after application. The inoculated leaf disks are incubated at 20° C. and 60% rh under a light regime of 24 h darkness followed by 12 h light/12 h darkness in a climate chamber and the activity of a compound is assessed as percent disease control compared to untreated when an appropriate level of disease damage appears on untreated check leaf segments (6-8 days after application).

[5] = tested on: Plasmopara viticola; assay: whole plant or invertebrate; assay type: in vivo; conditions: foliar, read-out: control of Plasmopara viticola
[6] = tested on: Monographella nivalis (Microdochium nivale); assay: Monographella nivalis (Microdochium nivale)/Liquid Culture (Foot Rot Cereals); assay type: cell-based; conditions: liquid culture, compared to untreated control
Description: (§1) Conidia of the fungus from cryogenic storage are directly mixed into nutrient broth (PDB potato dextrose broth). After placing a (DMSO) solution of test compound into a microtiter plate (96-well format), the nutrient broth containing the fungal spores is added.

[7] = tested on: Mycosphaerella arachidis (Cercospora arachidicola); assay: Mycosphaerella arachidis (Cercospora arachidicola)/Liquid Culture (Early Leaf Spot); assay type: cell-based; conditions: liquid culture, compared to untreated control
Description: as §1

[8] = tested on: Phaeosphaeria nodorum (Septoria nodorum); assay: Phaeosphaeria nodorum (Septoria nodorum)/Wheat/Leaf Disc Preventative (Glume Blotch); assay type: in vivo; conditions: Parastagonospora nodorum, foliar, wheat leaf disc preventative, compared to untreated control
Description: Wheat leaf segments cv. Kanzler are placed on agar in a multiwell plate (24-well format) and sprayed with the formulated test compound diluted in water. The leaf disks are inoculated with a spore suspension of the fungus 2 days after application. The inoculated test leaf disks are incubated at 20° C. and 75% rh under a light regime of 12 h light/12 h darkness in a climate cabinet and the activity of a compound is assessed as percent disease control compared to untreated when an appropriate level of disease damage appears in untreated check leaf disks (5-7 days after application).

[9] = tested on: Puccinia recondita f. sp. tritici; assay: Puccinia recondita f. sp. tritici/Wheat/Leaf Disc Preventative (Brown Rust); assay type: in vivo; conditions: foliar; for pest or weed control at 200 ppm: wheat leaf disc preventative, compared to untreated control, read-out: control of Puccinia recondita f. sp. tritici
[10] = tested on: Magnaporthe grisea (Pyricularia oryzae); assay: whole plant or invertebrate; assay type: in vivo; conditions: foliar, read-out: control of Magnaporthe grisea
[11] = tested on: Glomerella lagenarium (Colletotrichum lagenarium); assay: Glomerella lagenarium (Colletotrichum lagenarium)/Liquid Culture (Anthracnose); assay type: cell-based; conditions: Colletotrichum orbiculare, liquid culture, compared to untreated control
[12] = foliar, soybean leaf disc preventative, compared to untreated control, read-out: control of Phakopsora pachyrhizi
[13] = Phakopsora pachyrhizi (Soybean rust)
[14] = Phakopsora pachyrhizi (Soybean rust), read-out: control (%)

| Structure (SMILES) | pest or weed control at 200 ppm [1] | inhibition of growth at 20 ppm [3] | pest or weed control at 200 ppm [4] | pest or weed control at 200 ppm [5] | melting point | inhibition of growth at 20 ppm [6] | inhibition of growth at 20 ppm [7] | pest or weed control at 200 ppm [8] | pest or weed control at 200 ppm [9] | further results |
| --- | --- | --- | --- | --- | --- | --- | --- | --- | --- | --- |
| CO/C=C(\Oc1cc(-n2ccc(C(F)(F)F)n2)cc(F)c1C)C(=O)OC [Compound E-3, methyl (Z)-2-[3-fluoro-2-methyl-5-[3-(trifluoromethyl)pyrazol-1-yl]phenoxy]-3-methoxy-prop-2-enoate] | ≥ 80% | ≥ 80% | ≥ 80% | ≥ 80% | 133 to 135 °C | ≥ 80% | ≥ 80% | ≥ 80% | ≥ 80% | pest or weed control at 200 ppm [2, 12]: ≥ 50% |
| CCC(CC)c1ccn(-c2ccc(C)c(O/C(=C\OC)C(=O)OC)c2)n1 [Compound E-4, methyl (Z)-2-[5-[3-(1-ethylpropyl)pyrazol-1-yl]-2-methyl-phenoxy]-3-methoxy-prop-2-enoate] | ≥ 80% | ≥ 80% | ≥ 80% |  | 108 to 111 °C | ≥ 80% | ≥ 80% | ≥ 80% | ≥ 80% | pest or weed control at 200 ppm [2, 12]: ≥ 50% |
| CO/C=C(\Oc1cccc(-n2ccc(C)n2)c1)C(=O)OC [Compound E-9, methyl (Z)-3-methoxy-2-[3-(3-methylpyrazol-1-yl)phenoxy]prop-2-enoate] |  | ≥ 80% |  |  |  | ≥ 80% | ≥ 80% |  |  |  |
| CO/C=C(\Oc1cc(-n2cc(Br)c(C3CCCCC3)n2)ccc1C)C(=O)OC [Compound E-10, methyl (Z)-2-[5-(4-bromo-3-cyclohexyl-pyrazol-1-yl)-2-methyl-phenoxy]-3-methoxy-prop-2-enoate] |  | ≥ 80% |  |  | 120 to 126 °C | ≥ 80% | ≥ 80% |  |  | pest or weed control at 200 ppm [10]: ≥ 80% |
| CCCOc1ccn(-c2ccc(C)c(O/C(=C\OC)C(=O)OC)c2)n1 [Compound E-13, methyl (Z)-3-methoxy-2-[2-methyl-5-(3-propoxypyrazol-1-yl)phenoxy]prop-2-enoate] |  |  |  |  | 85 to 87 °C |  |  |  |  |  |
| CO/C=C(\Oc1cccc(-n2ccc(C3CC3)n2)c1)C(=O)OC [Compound E-14, methyl (Z)-2-[3-(3-cyclopropylpyrazol-1-yl)phenoxy]-3-methoxy-prop-2-enoate] |  | ≥ 80% |  |  |  | ≥ 80% | ≥ 80% |  |  | inhibition of growth at 20 ppm [11]: ≥ 80% |
| CO/C=C(\Oc1cc(-n2ccc(C(F)(F)F)n2)cc(OC)c1C)C(=O)OC [Compound E-22, methyl (Z)-3-methoxy-2-[3-methoxy-2-methyl-5-[3-(trifluoromethyl)pyrazol-1-yl]phenoxy]prop-2-enoate] | ≥ 80% | ≥ 80% | ≥ 80% |  | 153 to 156 °C | ≥ 80% | ≥ 80% |  | ≥ 80% |  |
| CO/C=C(\Oc1cc(-n2ccc(CSC)n2)ccc1C)C(=O)OC [Compound E-76, methyl (Z)-3-methoxy-2-[2-methyl-5-[3-(methylsulfanylmethyl)pyrazol-1-yl]phenoxy]prop-2-enoate] | ≥ 80% | ≥ 80% |  | ≥ 80% | 78 to 80 °C | ≥ 80% | ≥ 80% |  | ≥ 80% | pest or weed control at 200 ppm [10]: ≥ 80% |
| CO/C=C(\Oc1cc(-n2ccc(Br)n2)ccc1Br)C(=O)OC [Compound E-84, methyl (Z)-2-[2-bromo-5-(3-bromopyrazol-1-yl)phenoxy]-3-methoxy-prop-2-enoate] |  | ≥ 80% | ≥ 80% | ≥ 80% |  | ≥ 80% | ≥ 80% | ≥ 80% | ≥ 80% | pest or weed control at 200 ppm [2, 12]: ≥ 50%; inhibition of growth at 20 ppm [11]: ≥ 80% |
| CO/C=C(\Oc1cc(-n2ccc(C)n2)ccc1C1CC1)C(=O)OC [Compound E-106, methyl (Z)-2-[2-cyclopropyl-5-(3-methylpyrazol-1-yl)phenoxy]-3-methoxy-prop-2-enoate] |  |  |  | ≥ 80% | 189 to 191 °C |  |  |  | ≥ 80% |  |
| CCc1ccc(-n2ccc(C)n2)cc1O/C(=C\OC)C(=O)OC [Compound E-107, methyl (Z)-2-[2-ethyl-5-(3-methylpyrazol-1-yl)phenoxy]-3-methoxy-prop-2-enoate] |  | ≥ 80% |  |  | 169 to 171 °C |  |  |  | ≥ 80% |  |
| CO/C=C(\Oc1cc(-n2cc(Cl)c(Cl)n2)ccc1C)C(=O)OC [Compound E-111, methyl (Z)-2-[5-(3,4-dichloropyrazol-1-yl)-2-methyl-phenoxy]-3-methoxy-prop-2-enoate] |  |  | ≥ 80% | ≥ 80% | 140 to 144 °C | ≥ 80% | ≥ 80% | ≥ 80% |  | inhibition of growth at 20 ppm [11]: ≥ 80% |
| CO/C=C(\Oc1cc(-n2ncc(C(F)(F)F)n2)ccc1C)C(=O)OC [Compound F-6, methyl (Z)-3-methoxy-2-[2-methyl-5-[4-(trifluoromethyl)triazol-2-yl]phenoxy]prop-2-enoate] | ≥ 80% | ≥ 80% | ≥ 80% | ≥ 80% | 107 to 109 °C | ≥ 80% | ≥ 80% | ≥ 80% |  | pest or weed control at 200 ppm [10]: ≥ 80%; pest or weed control at 0.6 ppm [2, 13]: 0%; pest or weed control at 2 ppm [2, 13]: 0%; pest or weed control at 6 ppm [2, 13]: 20%; pest or weed control at 20 ppm [2, 13]: 80%; pest or weed control at 60 ppm [2, 13]: 100%; pest or weed control at 200 ppm [2, 14]: 100%; inhibition of growth at 20 ppm [11]: ≥ 80% |
| CO/C=C(\Oc1cc(-n2cccc2)ccc1C)C(=O)OC [Compound X-2, reference compound] |  |  |  |  |  |  |  |  |  | pest or weed control at 0.6 ppm [2, 13]: 0%; pest or weed control at 2 ppm [2, 13]: 0%; pest or weed control at 6 ppm [2, 13]: 0%; pest or weed control at 20 ppm [2, 13]: 0%; pest or weed control at 60 ppm [2, 13]: 70%; pest or weed control at 200 ppm [2, 14]: 100% |
| CO/C=C(\Oc1cc(-c2cccc(C(F)(F)F)n2)ccc1C)C(=O)OC [Compound X-3, reference compound] |  |  |  |  |  |  |  |  |  | pest or weed control at 0.6 ppm [2, 13]: 0%; pest or weed control at 2 ppm [2, 13]: 0%; pest or weed control at 6 ppm [2, 13]: 0%; pest or weed control at 20 ppm [2, 13]: 10%; pest or weed control at 60 ppm [2, 13]: 50%; pest or weed control at 200 ppm [2, 14]: 85% |
| CCCc1ccn(-c2ccc(C)c(O/C(=C\OC)C(=O)OC)c2)n1 [drawing 151] |  |  |  |  |  |  |  |  |  | inhibition of growth at 6 ppm ([3]; M. graminicola (B19), 6 ppm, read-out: Disease control (%)): 100%; pest or weed control at 60 ppm ([9]; P. recondita prev (B13), 60 ppm, read-out: Disease control (%)): 70% |

From patent publication US12043600B2, “Microbiocidal compounds” (SYNGENTA CROP PROTECTION AG, priority 2018, dated 2024)
